Species on record: Rattus norvegicus
Test: DrugMatrix - Regimen: Daily Repeat
Type: toxicity, organism-based, Sprague-Dawley
Set-up: regimen Daily Repeat, gender Male, age 6-8 weeks
Details: in vivo, po, route oral GAVAGE, vehicle 100 % WATER; for ABSOLUTE BASOPHIL / ABSOLUTE EOSINOPHIL / ABSOLUTE LYMPHOCYTE / ABSOLUTE MONOCYTE / ABSOLUTE SEGMENTED NEUTROPHIL / BASOPHIL / EOSINOPHIL / ERYTHROCYTE COUNT / HEMATOCRIT / HEMOGLOBIN / LEUKOCYTE COUNT / LYMPHOCYTE / MEAN CORPUSCULAR HEMOGLOBIN / MEAN CORPUSCULAR HEMOGLOBIN CONCENTRATION / MEAN CORPUSCULAR VOLUME / MONOCYTE / NEUTROPHIL / NUCLEATED RED BLOOD CELLS / PLATELET COUNT: tissue Blood; for ALANINE AMINOTRANSFERASE / ALBUMIN / ALKALINE PHOSPHATASE / ASPARTATE AMINOTRANSFERASE / BLOOD UREA NITROGEN / CARBON DIOXIDE / CHLORIDE / CHOLESTEROL / CREATINE PHOSPHOKINASE / CREATININE / GLUCOSE / LACTATE DEHYDROGENASE / LIPASE / PHOSPHORUS / POTASSIUM / SODIUM / TOTAL BILIRUBIN / TOTAL PROTEIN / URIC ACID: tissue Plasma
[1] = 60 mg/kg, 72 h, dose level Low, time 3 day
[2] = 60 mg/kg, 120 h, dose level Low, time 5 day
[3] = 600 mg/kg, 72 h, dose level High, time 3 day
[4] = 600 mg/kg, 120 h, dose level High, time 5 day

## C=C(Cl)Cl [1,1-DICHLOROETHENE]
[1]
  ABSOLUTE BASOPHIL: 0 CELLS/uL
  ABSOLUTE EOSINOPHIL: 51.33 CELLS/uL
  ABSOLUTE LYMPHOCYTE: 13010.33 CELLS/uL
  ABSOLUTE MONOCYTE: 288.67 CELLS/uL
  ABSOLUTE SEGMENTED NEUTROPHIL: 1149.67 CELLS/uL
  BASOPHIL: 0%
  EOSINOPHIL: 0.33%
  ERYTHROCYTE COUNT: 5.5 x10E6/uL
  HEMATOCRIT: 34%
  HEMOGLOBIN: 13.53 G/DL
  LEUKOCYTE COUNT: 14.5 x10E3/uL
  LYMPHOCYTE: 89.67%
  MEAN CORPUSCULAR HEMOGLOBIN: 24.63 pg
  MEAN CORPUSCULAR HEMOGLOBIN CONCENTRATION: 39.83 G/DL
  MEAN CORPUSCULAR VOLUME: 61.83 fL
  MONOCYTE: 2%
  NEUTROPHIL: 8%
  NUCLEATED RED BLOOD CELLS: 0.33 /100WBC
  PLATELET COUNT: 1358.33 x10E3/uL
  ALANINE AMINOTRANSFERASE: 52 u/L
  ALBUMIN: 4.13 G/DL
  ALKALINE PHOSPHATASE: 441.67 u/L
  ASPARTATE AMINOTRANSFERASE: 84.67 u/L
  BLOOD UREA NITROGEN: 15 mg/dL
  CARBON DIOXIDE: 24.33 mmol/L
  CHLORIDE: 102 MEQ/L
  CHOLESTEROL: 73.33 mg/dL
  CREATINE PHOSPHOKINASE: 314 u/L
  CREATININE: 0.14 mg/dL
  GLUCOSE: 162 mg/dL
  LACTATE DEHYDROGENASE: 291.33 u/L
  LIPASE: 9 u/L
  PHOSPHORUS: 13 mg/dL
  POTASSIUM: 6.27 MEQ/L
  SODIUM: 144.17 MEQ/L
  TOTAL BILIRUBIN: 0.13 mg/dL
  TOTAL PROTEIN: 5.77 G/DL
  URIC ACID: 1.43 mg/dL
[2]
  ABSOLUTE BASOPHIL: 0 CELLS/uL
  ABSOLUTE EOSINOPHIL: 128.33 CELLS/uL
  ABSOLUTE LYMPHOCYTE: 16922 CELLS/uL
  ABSOLUTE MONOCYTE: 76.33 CELLS/uL
  ABSOLUTE SEGMENTED NEUTROPHIL: 1473.33 CELLS/uL
  BASOPHIL: 0%
  EOSINOPHIL: 0.67%
  ERYTHROCYTE COUNT: 5.28 x10E6/uL
  HEMATOCRIT: 33.8%
  HEMOGLOBIN: 13.87 G/DL
  LEUKOCYTE COUNT: 18.6 x10E3/uL
  LYMPHOCYTE: 91.33%
  MEAN CORPUSCULAR HEMOGLOBIN: 26.23 pg
  MEAN CORPUSCULAR HEMOGLOBIN CONCENTRATION: 41.07 G/DL
  MEAN CORPUSCULAR VOLUME: 63.9 fL
  MONOCYTE: 0.33%
  NEUTROPHIL: 7.67%
  NUCLEATED RED BLOOD CELLS: 0 /100WBC
  PLATELET COUNT: 1031 x10E3/uL
  ALANINE AMINOTRANSFERASE: 56.67 u/L
  ALBUMIN: 4.23 G/DL
  ALKALINE PHOSPHATASE: 282 u/L
  ASPARTATE AMINOTRANSFERASE: 78 u/L
  BLOOD UREA NITROGEN: 16.67 mg/dL
  CARBON DIOXIDE: 23.67 mmol/L
  CHLORIDE: 103.67 MEQ/L
  CHOLESTEROL: 71.67 mg/dL
  CREATINE PHOSPHOKINASE: 168.67 u/L
  CREATININE: 0.22 mg/dL
  GLUCOSE: 147.33 mg/dL
  LACTATE DEHYDROGENASE: 101.67 u/L
  LIPASE: 9.33 u/L
  PHOSPHORUS: 13.27 mg/dL
  POTASSIUM: 6.62 MEQ/L
  SODIUM: 147.33 MEQ/L
  TOTAL BILIRUBIN: 0.2 mg/dL
  TOTAL PROTEIN: 5.9 G/DL
  URIC ACID: 1.67 mg/dL
[3]
  ABSOLUTE BASOPHIL: 0 CELLS/uL
  ABSOLUTE EOSINOPHIL: 0 CELLS/uL
  ABSOLUTE LYMPHOCYTE: 19725 CELLS/uL
  ABSOLUTE MONOCYTE: 397.33 CELLS/uL
  ABSOLUTE SEGMENTED NEUTROPHIL: 2311 CELLS/uL
  BASOPHIL: 0%
  EOSINOPHIL: 0%
  ERYTHROCYTE COUNT: 5.83 x10E6/uL
  HEMATOCRIT: 37.37%
  HEMOGLOBIN: 15.3 G/DL
  LEUKOCYTE COUNT: 22.43 x10E3/uL
  LYMPHOCYTE: 88.33%
  MEAN CORPUSCULAR HEMOGLOBIN: 26.2 pg
  MEAN CORPUSCULAR HEMOGLOBIN CONCENTRATION: 40.93 G/DL
  MEAN CORPUSCULAR VOLUME: 64 fL
  MONOCYTE: 2%
  NEUTROPHIL: 9.67%
  NUCLEATED RED BLOOD CELLS: 0.33 /100WBC
  PLATELET COUNT: 1189.67 x10E3/uL
  ALANINE AMINOTRANSFERASE: 61.33 u/L
  ALBUMIN: 4.23 G/DL
  ALKALINE PHOSPHATASE: 458.33 u/L
  ASPARTATE AMINOTRANSFERASE: 80 u/L
  BLOOD UREA NITROGEN: 11.33 mg/dL
  CARBON DIOXIDE: 26 mmol/L
  CHLORIDE: 103.67 MEQ/L
  CHOLESTEROL: 79.67 mg/dL
  CREATINE PHOSPHOKINASE: 213.67 u/L
  CREATININE: 0.17 mg/dL
  GLUCOSE: 159 mg/dL
  LACTATE DEHYDROGENASE: 74.33 u/L
  LIPASE: 9.67 u/L
  PHOSPHORUS: 12.7 mg/dL
  POTASSIUM: 6.59 MEQ/L
  SODIUM: 144.9 MEQ/L
  TOTAL BILIRUBIN: 0.2 mg/dL
  TOTAL PROTEIN: 5.83 G/DL
  URIC ACID: 1.9 mg/dL
[4]
  ABSOLUTE BASOPHIL: 0 CELLS/uL
  ABSOLUTE EOSINOPHIL: 0 CELLS/uL
  ABSOLUTE LYMPHOCYTE: 18262.67 CELLS/uL
  ABSOLUTE MONOCYTE: 288.67 CELLS/uL
  ABSOLUTE SEGMENTED NEUTROPHIL: 2115.33 CELLS/uL
  BASOPHIL: 0%
  EOSINOPHIL: 0%
  ERYTHROCYTE COUNT: 5.83 x10E6/uL
  HEMATOCRIT: 36.67%
  HEMOGLOBIN: 14.73 G/DL
  LEUKOCYTE COUNT: 20.67 x10E3/uL
  LYMPHOCYTE: 89%
  MEAN CORPUSCULAR HEMOGLOBIN: 25.23 pg
  MEAN CORPUSCULAR HEMOGLOBIN CONCENTRATION: 40.2 G/DL
  MEAN CORPUSCULAR VOLUME: 62.87 fL
  MONOCYTE: 1.33%
  NEUTROPHIL: 9.67%
  NUCLEATED RED BLOOD CELLS: 0.33 /100WBC
  PLATELET COUNT: 1233.33 x10E3/uL
  ALANINE AMINOTRANSFERASE: 48 u/L
  ALBUMIN: 4.23 G/DL
  ALKALINE PHOSPHATASE: 376.33 u/L
  ASPARTATE AMINOTRANSFERASE: 81 u/L
  BLOOD UREA NITROGEN: 14.67 mg/dL
  CARBON DIOXIDE: 23.33 mmol/L
  CHLORIDE: 102 MEQ/L
  CHOLESTEROL: 75 mg/dL
  CREATINE PHOSPHOKINASE: 337.67 u/L
  CREATININE: 0.21 mg/dL
  GLUCOSE: 150.33 mg/dL
  LACTATE DEHYDROGENASE: 117.33 u/L
  LIPASE: 10 u/L
  PHOSPHORUS: 12.33 mg/dL
  POTASSIUM: 7.1 MEQ/L
  SODIUM: 144.9 MEQ/L
  TOTAL BILIRUBIN: 0.2 mg/dL
  TOTAL PROTEIN: 6.1 G/DL
  URIC ACID: 1.77 mg/dL
